The values below are quoted from earlier work in patent US20140256762A1, “ARTEMISININ-BASED COMBINATION THERAPY FOR TREATING VIRAL MEDIATED DISEASE” (priority 2012, published 2014).

The conditions of series [1]: background statement.
For series [2] the following is noted: background statement. This is another data set of the same source.

The structures appear in SMILES notation.

On to `COc1ccc2cc3[n+](cc2c1OC)CCc1cc2c(cc1-3)OCO2` [Berberine, (5,6-Dihydro-9,10-dimethoxybenzo[g]-1,3-benzodioxolo[5,6-a]quinolizinium)], for which, in series [1], the Genotoxic activity result is recorded as “no genotoxic activity”. In series [1] (generally considered), the Toxicity entry is on record as “non-toxic”.

As to `CO[C@H]1O[C@@H]2O[C@@]3(C)CC[C@H]4[C@H](C)CC[C@@H]([C@H]1C)[C@@]24OO3` [artemether, (+)-(3-alpha,5a-beta,6-beta,8a-beta, 9-alpha,12-beta,12aR)-decahydro-10-methoxy-3,6,9-trimethyl-3,12-epoxy-12H-pyrano(4,3-j)-1,2-benzodioxepin], the Solubility result in series [2] is given as “lipid-soluble”.

With `C[C@@H]1CC[C@H]2[C@@H](C)C(=O)O[C@@H]3O[C@@]4(C)CC[C@@H]1[C@]32OO4` [artemisinin], the Solubility entry in series [2] is “sparingly soluble in either water or oils”.

Regarding `C[C@H]1[C@H](OC(=O)CCC(=O)O)O[C@@H]2O[C@@]3(C)CC[C@H]4[C@H](C)CC[C@@H]1[C@@]24OO3` [artesunate, 3R,5aS,6R,8aS,9R,10S,12R,12aR)-Decahydro-3,6,9-trimethyl-3,12-epoxy-12H-pyrano(4,3-j)-1,2-benzodioxepin-10-ol hydrogen succinate], the Solubility result in series [2] is given as “water-soluble”.
